{"source": "patent US20240245639A1", "about": "“Dermal Application of Retinoic Acid Receptor Agonists for Amelioration of Hypertrophic Scar” (Northwestern University, priority 2023, published 2024)", "key": {"[1]": {"system": "primary human foreskin fibroblasts", "test": "Antagonism of fibroblast activation in presence or absence of TGF-β1 (qRT-PCR, Western blot, immunofluorescence)", "assay_type": "cell-based", "details": "1,000 nM Ch55, presence and absence of TGF-β1, 48 hours", "experimental": "RAR Agonist all-Trans Retinoic Acid Antagonizes Myofibroblast Activation We then wished to see whether another RAR agonist could antagonize myofibroblast activation.\nCells cultured on glass coverslips were fixed in 4% paraformaldehyde for 30 minutes at room temperature. Cells were blocked in 10% normal goat serum and incubated overnight at 4° C. in solutions of the following primary antibodies: Rabbit monoclonal α-human α-SMA (1:500 dilution, catalog #192455, Cell Signaling Technology, Danvers M A) or mouse α-human COL1A1 (1:1000 dilution, catalog #M-38c, DSHB, Iowa City, IA). The following day, cells were incubated in 1:200 diluted solutions of goat-α-rabbit IgG or donkey-α-mouse IgG Alexafluor 488-conjugated secondary antibodies (A11034 or A21202, Invitrogen) containing Alexafluor 568-conjugated phalloidin (A12380, Invitrogen) for 2 hours in the dark at room temperature, before a 20 minute counterstain in 500 ng/mL DAPI. Coverslips were mounted onto slides in the dark using Fluoro Gel with DABCO (Electron Microscopy Sciences, Hatfield, PA) and imaged on an EVOS-FL imaging system (ThermoFisher).\nHarvested scar tissues were incubated in 0.5M ammonium thiocyanate for 20 minutes, followed by mechanical separation of dermis and epidermis using a dissecting microscope. Isolated dermal tissues were minced with a razor blade, submerged in RIPA buffer, and homogenized in the presence of 2 mm zirconia beads using a MagNA Lyser (Roche, Basel, Switzerland). Alternatively, cell culture samples were detached from the culture surface by trypsinization, collected by centrifugation, and lysed in RIPA buffer. Protein concentrations of cell culture and tissue samples were determined using a DC protein assay (BioRad). Five micrograms of total protein were loaded onto polyacrylamide gels and subjected to SDS-PAGE before transfer to nitrocellulose membranes, blocking with 5% dry milk in TBS-T, and probing with target-specific primary antibodies overnight. Species-specific secondary antibody solutions were added to membranes, and chemiluminescent signal was developed with Amersham ECL Western blotting detection reagent using X-ray film.\nPrimary antibodies used were rabbit anti-α-SMA (1:1000, 19245S, Cell Signaling Technology), rabbit anti-collagen I (1:1000, ab34710, Abcam), mouse anti-collagen I (1:1000, C2456, Sigma-Aldrich), and mouse anti-GAPDH (1:5000, MA5-15738, Invitrogen). Secondary antibodies utilized were HRP goat anti-rabbit IgG(H+L) and horse anti-mouse IgG(H+L) (Vector Laboratories, Newark, CA), both used at 1:5000."}, "[2]": {"system": "primary human foreskin fibroblasts", "test": "In vitro single-concentration screen of predicted compounds (brightfield, qRT-PCR)", "assay_type": "cell-based", "details": "single concentration, 24 hours, vs vehicle", "experimental": "In order to initially test the identified drugs, we applied each drug or DMSO vehicle control at a single concentration to primary human foreskin fibroblasts in vitro for 24 hours, before harvesting and measuring relative expression of selected myofibroblast marker genes by qRT-PCR. […] None of the drugs tested appeared to affect expression of TGFB1 (the gene encoding transforming growth factor-beta 1) at the examined concentrations.\nMATERIALS AND METHODS Materials Emetine dihydrochloride hydrate, homoharringtonine, Ch55 and panobinostat were acquired from Fisher Scientific (Waltham, MA). AZD-7762 was acquired from Selleck Chemicals (Houston, TX). For in vitro work, emetine dihydrochloride hydrate was dissolved in sterile H2O at 50 mM. Homoharringtonine was dissolved in DMSO at 10 mg/mL. Panobinostat was dissolved in DMSO at 425 μM. […] AZD-7762 was dissolved in DMSO at 500 μM. Recombinant human TGF-β1 (Sigma-Aldrich) was dissolved in sterile H2O at 50 µg/mL. All-trans-retinoic acid (Thermo Scientific) was dissolved in DMSO at 10 mM."}, "[3]": {"system": "primary human foreskin fibroblasts", "details": "second donor, 1,000 nM, 24 hours", "method": "Cell culture Primary human neonatal foreskin fibroblasts were obtained from the Skin Biology and Diseases Resource-based Center at Northwestern University. Primary rabbit dermal fibroblasts were isolated from female New Zealand White rabbits via harvesting full-thickness skin biopsies from rabbit ears, digesting overnight in a solution of 5 mg/mL dispase, and subsequently mechanically separating dermis from epidermis. After discarding epidermal tissue, dermal tissue was minced with a razor blade, and fibroblasts were liberated through collagenase-mediated digestion for growth in culture. […] Human fibroblasts and rabbit fibroblasts were cultured on tissue culture plastic (or, for immunofluorescence experiments, on glass coverslips) in DMEM+10% FBS and were serum starved in DMEM+0.1% FBS for 24 hours prior to drug treatments. When indicated, recombinant human TGF-β 1 was included in culture medium at a concentration of 10 ng/mL. Cultures were maintained in a humidified cell culture incubator at 37° C., 5% CO2, and ambient O2. For treatment with drugs and associated vehicle controls, the fraction of DMSO in the media was always maintained at <0.1% (v/v) in order to avoid confounding effects. […]"}, "[4]": {"system": "excisional wound-induced hypertrophic scarring in the ears of New Zealand White rabbits", "test": "Rabbit ear hypertrophic scar model", "assay_type": "in vivo", "details": "POD28; for amount of type I collagen in the dermis (Western blot, densitometry) / erythema in developed scars: intradermal; for erythema in developed scars: three injections", "experimental": "Harvested scars were processed and analyzed to determine scar elevation index (SEI), a common quantitative histological measurement used to assess scar hypertrophy (FIG. 17). […] MATERIALS AND METHODS Materials […] dihydrochloride hydrate, homoharringtonine, Ch55 and panobinostat were acquired from Fisher Scientific (Waltham, MA). AZD-7762 was acquired from Selleck Chemicals (Houston, TX). For in vitro work, emetine dihydrochloride hydrate was dissolved in sterile H2O at 50 mM. Homoharringtonine was dissolved in DMSO at 10 mg/mL. Panobinostat was dissolved in DMSO at 425 μM. […] Recombinant human TGF-β1 (Sigma-Aldrich) was dissolved in sterile H2O at 50 µg/mL. All-trans-retinoic acid (Thermo Scientific) was dissolved in DMSO at 10 mM. […] All animal experiments were approved prior to initiation by the Northwestern University Institutional Animal Care and Use Committee (IACUC). Rabbit experiments were performed in female New Zealand White rabbits (Envigo, Indianapolis, IN) of mass 2.5-3 kg. The hypertrophic scar model was performed as described in previous publications (Dolivo et al., Jia et al., 2017, Xie et al., 2020). Briefly, on each ear, six full-thickness circular excisional wounds of 7-mm diameter were created down to the perichondrium using biopsy punches, and excised tissue was removed gently using forceps. Wounds were covered with Tegaderm (3M Healthcare, St. Paul, MN) and wounds were allowed to re-epithelialize until post-operative day (POD) 12. […] Injections were performed on POD16, POD19, and POD22. On POD28, measurements of erythema were performed using a DermaLab Combo (CyberDerm, Broomall, PA) immediately prior to euthanasia and tissue harvest. Harvested scar tissues were incubated in 0.5M ammonium thiocyanate for 20 minutes, followed by mechanical separation of dermis and epidermis using a dissecting microscope. Isolated dermal tissues were minced with a razor blade, submerged in RIPA buffer, and homogenized in the presence of 2 mm zirconia beads using a MagNA Lyser (Roche, Basel, Switzerland). Alternatively, cell culture samples were detached from the culture surface by trypsinization, collected by centrifugation, and lysed in RIPA buffer. Protein concentrations of cell culture and tissue samples were determined using a DC protein assay (BioRad). Five micrograms of total protein were loaded onto polyacrylamide gels and subjected to SDS-PAGE before transfer to nitrocellulose membranes, blocking with 5% dry milk in TBS-T, and probing with target-specific primary antibodies overnight. Species-specific secondary antibody solutions were added to membranes, and chemiluminescent signal was developed with Amersham ECL Western blotting detection reagent using X-ray film. Harvested tissues were fixed in 10% neutral-buffered formalin for 24 hours before serial dehydration and embedding in paraffin. […] Slides were deparaffinized and rehydrated in xylene and serial ethanol. Tissue samples were stained with hematoxylin and eosin (H&E), Modified Masson's Trichrome stain (Scytek, Logan, UT), or picrosirius red/fast green according to standard protocols."}}, "data": [{"compound": "CC(C)(C)c1cc(C(=O)/C=C/c2ccc(C(=O)O)cc2)cc(C(C)(C)C)c1", "note": "[Ch55]", "values": [{"measurement": "α-SMA protein in filamentous actin stress fibers (immunofluorescence)", "setting": "[1]", "value": "loss of α-SMA protein from filamentous actin stress fibers"}, {"measurement": "ACTA2 expression (qRT-PCR)", "setting": "[2]", "value": "clear and consistent downregulation"}, {"measurement": "CCN2 expression (qRT-PCR)", "setting": "[2]", "value": "clear and consistent downregulation"}, {"measurement": "MMP1 expression (qRT-PCR)", "setting": "[2]", "value": "without downregulating"}, {"measurement": "SERPINE1 expression (qRT-PCR)", "setting": "[2]", "value": "clear and consistent downregulation"}, {"measurement": "effects on morphology and gene expression in fibroblasts of another tissue donor", "setting": "[3]", "value": "comparable effects"}, {"measurement": "collagen density of the scars (Masson's Trichrome, picrosirius red/fast green)", "setting": "[4]; Ch55-treated wounds", "value": "possible decrease"}, {"measurement": "amount of type I collagen in the dermis (Western blot, densitometry)", "setting": "[4]; high dose (10 μg)", "value": "sufficient to reduce"}, {"measurement": "erythema in developed scars", "setting": "[4]; high dose (10 μg)", "value": "significantly decreased"}, {"measurement": "amount of type I collagen in the dermis (Western blot, densitometry)", "setting": "[4]; low dose (2 μg)", "value": "sufficient to reduce"}, {"measurement": "erythema in developed scars", "setting": "[4]; low dose (2 μg)", "value": "not statistically significant"}]}]}
